Measurements: PubChem BioAssay AID2060347 (Molecular Pharmacology Branch, DTP, NCI, 2025)

System: 817829-284-R-J1-PDC spheroids with HUVEC/MSC, viability
Test: Anticancer human tumor 817829-284-R-J1-PDC patient-derived colon adenocarcinoma cell line growth inhibition [TAK]
Details: for IC50: curve of first compound; for viability, T/C: stronger effect = lower value
From the text: Combinatorial screen of targeted agents with TAK-243 and ipatasertib in multi-cell type tumor spheroids
A high-throughput screen of multi-cell type tumor spheroids was designed to identify active combinations of targeted small molecules and TAK-243 or ipatasertib. Complex spheroids include a stromal component modeled by human endothelial cells (HUVEC) and fibroblasts modeled by human mesenchymal stem cells (MSCs). The concentration ranges selected for each drug and investigational agent were based upon clinically achievable concentrations if the clinical Cmax of the agent was known.
Compounds. The drugs and investigational agents: TAK-243 (785004), ipatasertib (767898), everolimus (733504), selumetinib (741078), bortezomib (756655), trametinib (758246), ixazomib (758254), vemurafenib (761431), dabrafenib (764134), sapanisertib (764658), alpelisib (765974), and copanlisib (816437), were obtained from the National Cancer Institute (NCI) Developmental Therapeutics Program Chemical Repository. The FDA-approved anticancer drug set is available from the NCI Developmental Therapeutics Program. […] The stock solutions were prepared in dimethyl sulfoxide (DMSO, Sigma-Aldrich, St. Louis, MO, cat. D2650) at 800-fold the tested concentration and stored at -70 degrees C prior to their use. All drugs and investigational agents were tested over a range starting from a high concentration at or near the clinical Cmax and decreasing in half-log increments. If the clinical Cmax for an agent had not been determined, the highest concentration tested was 10 microM.
NCI60 Cell Culture. NCI60 cell lines were obtained from the NCI Developmental Therapeutics Program Tumor Repository. For each lot of cells, the Repository performed Applied Biosystems AmpFLSTR Identifiler testing with PCR amplification to confirm consistency with the published Identifier STR profile for each cell line. Cells were kept in continuous culture for no more than 20 passages. The optimal seeding densities for each of the cell lines at each time point assessed were determined prior to performing the concentration response studies. Briefly, the NCI60 human tumor lines were grown as monolayers in RPMI 1640 medium supplemented with 10% FBS and 2 mmol/L L-glutamine.
An additional 2 lines were from the NCI60 cell line panel including melanomas, MALME-3M and SK-MEL-2. Pooled donor human umbilical vein endothelial cells (HUVEC, Lonza, cat. CC-2519) and human mesenchymal stem cells (hMSC, Lonza, cat. PT-2501) were purchased from Lonza (Walkersville, MD).
PDMR cell lines were grown in complete medium (DC medium): Dulbecco's modified Eagle's medium (DMEM)/F12 supplemented with 5% fetal bovine serum (FBS), 2 mM L-glutamine, 100 U/mL penicillin and 100 µg/ml streptomycin, 0.4 µg/ml hydrocortisone, 10 ng/ml epidermal growth factor (EGF) recombinant human protein, 24 µg/mL adenine, and 0.1 mg/mL primocin. During culture from frozen stock vials, PDMR cells were cultured in the same medium containing 10 µM Y-27632 (see Table 3). The PDCs were cultured in complete DMEM/F12 media without 10 microM Y-27632 dihydrochloride for at least two passages prior to the screen. The pooled donor HUVEC and hMSC were cultured in endothelial cell growth medium 2 (PromoCell, Heidelberg, Germany, cat. C-22011) and mesenchymal stem cell growth medium 2 (PromoCell, cat. C-28009), respectively. For all experiments, HUVEC and hMSC were used at passages </=5.
For the pre-screen, cell seeding densities were determined from a titration spanning the range from 5,000 to 313 cells per well. The mct-spheroids including 60% malignant cells, 25% HUVEC and 15% MSC dispensed as a mixture into U-bottom Ultra-Low Attachment 384-well plates (Corning, NY)
High-throughput Drug Combination Screening.
Prior to their inoculation into 384-well plates, malignant cells, HUVEC, and hMSC were removed from T flasks using TrypLE express (Thermo Fisher Scientific, cat. 12605036) and harvested by centrifugation for 5 min at 233 x g. […]

[1] = second compound 0.3 µM, first compound 0.00949 µM
[2] = second compound 0.3 µM, first compound 0.03 µM
[3] = second compound 0.949 µM, first compound 0.00949 µM
[4] = second compound 0.949 µM, first compound 0.03 µM
[5] = second compound 3 µM, first compound 0.00949 µM
[6] = second compound 3 µM, first compound 0.03 µM
[7] = second compound 9.49 µM, first compound 0.00949 µM
[8] = second compound 9.49 µM, first compound 0.03 µM
[9] = second compound 30 µM, first compound 0.00949 µM
[10] = second compound 30 µM, first compound 0.03 µM

Which results are given for CC(=O)Nc1cccc(-n2c(=O)n(C3CC3)c(=O)c3c(Nc4ccc(I)cc4F)n(C)c(=O)c(C)c32)c1 + CC(C)NCC(C(=O)N1CCN(c2ncnc3c2C(C)CC3O)CC1)c1ccc(Cl)cc1?
IC50 (second compound 0.3 µM): 0.154 nM; IC50 (second compound 0.949 µM): < 0.0949 nM; IC50 (second compound 3 µM): < 0.0949 nM; IC50 (second compound 9.49 µM): < 0.0949 nM; IC50 (second compound 30 µM): < 0.0949 nM; viability, T/C (second compound 0.3 µM, first compound 94.9 pM): 60%; viability, T/C (second compound 0.3 µM, first compound 0.0003 µM): 36.2%; viability, T/C (second compound 0.3 µM, first compound 0.000949 µM): 22.1%; viability, T/C (second compound 0.3 µM, first compound 0.003 µM): 24.3%; viability, T/C [1]: 11.9%; viability, T/C [2]: 7.59%; viability, T/C (second compound 0.949 µM, first compound 94.9 pM): 19.3%; viability, T/C (second compound 0.949 µM, first compound 0.0003 µM): 19.1%; viability, T/C (second compound 0.949 µM, first compound 0.000949 µM): 13.8%; viability, T/C (second compound 0.949 µM, first compound 0.003 µM): 12.8%; viability, T/C [3]: 11.4%; viability, T/C [4]: 10.6%; viability, T/C (second compound 3 µM, first compound 94.9 pM): 9.84%; viability, T/C (second compound 3 µM, first compound 0.0003 µM): 8.37%; viability, T/C (second compound 3 µM, first compound 0.000949 µM): 8.93%; viability, T/C (second compound 3 µM, first compound 0.003 µM): 8.79%; viability, T/C [5]: 7.98%; viability, T/C [6]: 7.61%; viability, T/C (second compound 9.49 µM, first compound 94.9 pM): 6.42%; viability, T/C (second compound 9.49 µM, first compound 0.0003 µM): 5.85%; viability, T/C (second compound 9.49 µM, first compound 0.000949 µM): 5.02%; viability, T/C (second compound 9.49 µM, first compound 0.003 µM): 5.15%; viability, T/C [7]: 5.13%; viability, T/C [8]: 4.15%; viability, T/C (second compound 30 µM, first compound 94.9 pM): 4.66%; viability, T/C (second compound 30 µM, first compound 0.0003 µM): 4.56%; viability, T/C (second compound 30 µM, first compound 0.000949 µM): 3.15%; viability, T/C (second compound 30 µM, first compound 0.003 µM): 3.45%; viability, T/C [9]: 2.76%; viability, T/C [10]: 2.65%

What does the source list for CC(C)CC(NC(=O)C(Cc1ccccc1)NC(=O)c1cnccn1)B(O)O (stereo not given) + CC(C)NCC(C(=O)N1CCN(c2ncnc3c2C(C)CC3O)CC1)c1ccc(Cl)cc1?
IC50 (second compound 0.3 µM): 4.91 nM; IC50 (second compound 0.949 µM): 4.23 nM; IC50 (second compound 3 µM): < 0.0316 nM; IC50 (second compound 9.49 µM): < 0.0316 nM; IC50 (second compound 30 µM): < 0.0316 nM; viability, T/C (second compound 0.3 µM, first compound 31.6 pM): 108%; viability, T/C (second compound 0.3 µM, first compound 0.0001 µM): 104%; viability, T/C (second compound 0.3 µM, first compound 0.000316 µM): 105%; viability, T/C (second compound 0.3 µM, first compound 0.001 µM): 100%; viability, T/C (second compound 0.3 µM, first compound 0.00316 µM): 80.7%; viability, T/C (second compound 0.3 µM, first compound 0.01 µM): 0.6%; viability, T/C (second compound 0.949 µM, first compound 31.6 pM): 88%; viability, T/C (second compound 0.949 µM, first compound 0.0001 µM): 60.8%; viability, T/C (second compound 0.949 µM, first compound 0.000316 µM): 64.6%; viability, T/C (second compound 0.949 µM, first compound 0.001 µM): 77.2%; viability, T/C (second compound 0.949 µM, first compound 0.00316 µM): 66.7%; viability, T/C (second compound 0.949 µM, first compound 0.01 µM): 0.35%; viability, T/C (second compound 3 µM, first compound 31.6 pM): 29.4%; viability, T/C (second compound 3 µM, first compound 0.0001 µM): 22.9%; viability, T/C (second compound 3 µM, first compound 0.000316 µM): 29.9%; viability, T/C (second compound 3 µM, first compound 0.001 µM): 22.3%; viability, T/C (second compound 3 µM, first compound 0.00316 µM): 19.9%; viability, T/C (second compound 3 µM, first compound 0.01 µM): 0.2%; viability, T/C (second compound 9.49 µM, first compound 31.6 pM): 12.7%; viability, T/C (second compound 9.49 µM, first compound 0.0001 µM): 13.2%; viability, T/C (second compound 9.49 µM, first compound 0.000316 µM): 11.6%; viability, T/C (second compound 9.49 µM, first compound 0.001 µM): 13.6%; viability, T/C (second compound 9.49 µM, first compound 0.00316 µM): 8.78%; viability, T/C (second compound 9.49 µM, first compound 0.01 µM): 0.15%; viability, T/C (second compound 30 µM, first compound 31.6 pM): 8.2%; viability, T/C (second compound 30 µM, first compound 0.0001 µM): 8.27%; viability, T/C (second compound 30 µM, first compound 0.000316 µM): 10.2%; viability, T/C (second compound 30 µM, first compound 0.001 µM): 9.25%; viability, T/C (second compound 30 µM, first compound 0.00316 µM): 6.13%; viability, T/C (second compound 30 µM, first compound 0.01 µM): 0.2%

How did the IC50 (second compound 0.3 µM) turn out when Cn1cnc2c(F)c(Nc3ccc(Br)cc3Cl)c(C(=O)NOCCO)cc21 + CC(C)NCC(C(=O)N1CCN(c2ncnc3c2C(C)CC3O)CC1)c1ccc(Cl)cc1 was run?
Its IC50 is 11.5 nM.

What about the IC50 (second compound 0.949 µM) of the same compound?
The IC50 was less than 9.49 nM.

What about the IC50 (second compound 3 µM) of the same compound?
Its IC50 is less than 9.49 nM.

And the IC50 (second compound 9.49 µM)?
Its IC50 is less than 9.49 nM.

And the IC50 (second compound 30 µM)?
Its IC50 is less than 9.49 nM.

And the viability, T/C [1]?
The viability, T/C was 53.8%.

And the viability, T/C [2]?
Its viability, T/C is 36.5%.

And the viability, T/C (second compound 0.3 µM, first compound 0.0949 µM)?
Its viability, T/C is 40.4%.

And the viability, T/C (second compound 0.3 µM, first compound 0.3 µM)?
The viability, T/C was 23.4%.

And the viability, T/C (second compound 0.3 µM, first compound 0.949 µM)?
The viability, T/C was 17.4%.

What about the viability, T/C (second compound 0.3 µM, first compound 3 µM) of the same compound?
Its viability, T/C is 9.69%.

And the viability, T/C [3]?
Its viability, T/C is 17.6%.

And the viability, T/C [4]?
Its viability, T/C is 15.9%.

And the viability, T/C (second compound 0.949 µM, first compound 0.0949 µM)?
The viability, T/C was 13.8%.

What about the viability, T/C (second compound 0.949 µM, first compound 0.3 µM) of the same compound?
Its viability, T/C is 12.9%.

And the viability, T/C (second compound 0.949 µM, first compound 0.949 µM)?
The viability, T/C was 12.6%.

What about the viability, T/C (second compound 0.949 µM, first compound 3 µM) of the same compound?
Its viability, T/C is 10.6%.

And the viability, T/C [5]?
Its viability, T/C is 9.45%.

What about the viability, T/C [6] of the same compound?
Its viability, T/C is 10.2%.

What about the viability, T/C (second compound 3 µM, first compound 0.0949 µM) of the same compound?
Its viability, T/C is 8.2%.

What about the viability, T/C (second compound 3 µM, first compound 0.3 µM) of the same compound?
The viability, T/C was 9.01%.

And the viability, T/C (second compound 3 µM, first compound 0.949 µM)?
The viability, T/C was 8.23%.

And the viability, T/C (second compound 3 µM, first compound 3 µM)?
The viability, T/C was 6.8%.

What about the viability, T/C [7] of the same compound?
Its viability, T/C is 6.1%.

And the viability, T/C [8]?
The viability, T/C was 6.4%.

And the viability, T/C (second compound 9.49 µM, first compound 0.0949 µM)?
Its viability, T/C is 5.55%.

And the viability, T/C (second compound 9.49 µM, first compound 0.3 µM)?
The viability, T/C was 5.64%.

And the viability, T/C (second compound 9.49 µM, first compound 0.949 µM)?
The viability, T/C was 4.81%.

What about the viability, T/C (second compound 9.49 µM, first compound 3 µM) of the same compound?
The viability, T/C was 4.12%.

And the viability, T/C [9]?
Its viability, T/C is 4.35%.

And the viability, T/C [10]?
The viability, T/C was 3.94%.

What about the viability, T/C (second compound 30 µM, first compound 0.0949 µM) of the same compound?
The viability, T/C was 3.58%.

And the viability, T/C (second compound 30 µM, first compound 0.3 µM)?
The viability, T/C was 3.91%.

And the viability, T/C (second compound 30 µM, first compound 0.949 µM)?
The viability, T/C was 2.71%.

And the viability, T/C (second compound 30 µM, first compound 3 µM)?
The viability, T/C was 2.38%.
